Measurements taken from patent publication US20170121344A1 (Siga Technologies, Inc., priority 2009, published 2017).
Like-named read-outs stand apart in the source and are kept apart here.

How the values were obtained:
[1] = system: Dengue-2 (Strain New Guinea C); assay: Viral yield assay against Dengue-2 in Vero cells; assay type: cell-based, Dengue virus; conditions: Dengue virus, Vero cells
Procedure, shortened: (§1)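 Yield reduction, Vero; MOI 0.1; compound vs DMSO; 37° C; harvest 48 h p.i.; titer on Vero; EC50 fitted. Other serotypes run the same way.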

four serotypes of dengue = assay: Yield assays against each of the four serotypes of dengue; assay type: cell-based, Dengue virus; conditions: all four serotypes
Description: Initially, the chemical structures of the hit compounds were examined for chemical tractability. […] Hits that passed this medicinal chemistry filter were evaluated for their potency. Compound potency was determined by evaluating inhibitory activity across a broad range of concentrations. Nonlinear regression was used to generate best-fit inhibition curves and to calculate the 50% effective concentration (EC50). The selectivity or specificity of a given compound is typically expressed as a ratio of its cytotoxicity to its biological effect. A cell proliferation assay is used to calculate a 50% cytotoxicity concentration (CC50); the ratio of this value to the EC50 is referred to as the therapeutic index (T.I.=CC50/EC50). Two types of assays have been used to determine cytotoxicity, both of which are standard methods for quantitating the reductase activity produced in metabolically active cells (22). […] Verification that these compounds act against each of the four serotypes of dengue was done with yield assays carried out at several drug concentrations, and the titer determined for each.
Compounds that were active in the primary screen were tested for activity in viral yield assays. […] The EC50 was calculated through ExcelFit. Activities against other serotypes of dengue virus were determined in a similar way.

DENV-1 = assay: Viral yield assay against DENV-1 in Vero cells; assay type: cell-based; conditions: Dengue virus, DENV1, viral yield assay
Procedure, shortened: as §1

DENV-3 = assay: Viral yield assay against DENV-3 in Vero cells; assay type: cell-based; conditions: Dengue virus, DENV3, viral yield assay
Procedure, shortened: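 Vero cells were infected with dengue virus at an MOI of 0.1, treated with compound or DMSO vehicle, and kept at 37° C. Supernatant virus was harvested 48 hours post infection and titered on Vero cells, with EC50 derived from yield reduction.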

DENV-4 = assay: Viral yield assay against DENV-4 in Vero cells; assay type: cell-based; conditions: Dengue virus, DENV4, viral yield assay
Procedure, shortened: as §1

dengue [2] = conditions: mouse model; cited from earlier work
dengue [3] = conditions: cited from earlier work
[4] = DENV2, viral yield assay, MOI 0.1, 48 hours post infection, read-out: Activity (EC50 in μM) DENV-2

Row | SMILES | EC50 ([1]; MOI 0.1, harvested 48 hours post infection, read-out: Activity (EC50 class) against Dengue-2 Virus in Vero cells) [µM] | Activity against serotypes of dengue (four serotypes of dengue) | EC50 [1, 4] [µM] | EC50 (DENV-1) [µM] | EC50 (DENV-3) [µM] | EC50 (DENV-4) [µM] | Protection against dengue (dengue [2]) | Adverse effects induced (dengue [3]; animal model, literature) | Protection against dengue (dengue [3]; rhesus monkey model)
1 | Nc1c(C(=O)Nc2nnc(-c3ccccc3)s2)sc2nc3c(cc12)CCCCC3 [Compound 1, 3-Amino-6,7,8,9-tetrahydro-5H-1-thia-10-aza-cyclohepta[f]indene-2-carboxylic acid (5-phenyl-[1,3,4]thiadiazol-2-yl)-amide] | < 5 | activity against all four serotypes of dengue |  |  |  |  |  |  | 
2 | COC(=O)c1ccc(NC(=O)c2sc3nc(-c4ccc(Cl)cc4)ccc3c2N)cc1 [Compound 645, methyl 4-[[3-amino-6-(4-chlorophenyl)thieno[2,3-b]pyridine-2-carbonyl]amino]benzoate] |  |  | < 5 | < 5 | < 5 | < 5 |  |  | 
3 | Nc1c(C(=O)Nc2ccc(F)cc2)sc2nc(-c3ccc(Cl)cc3)ccc12 [Compound 646, 3-amino-6-(4-chlorophenyl)-N-(4-fluorophenyl)thieno[2,3-b]pyridine-2-carboxamide] |  |  | < 5 | < 5 | < 5 | < 5 |  |  | 
4 | Cc1ccc(-c2ccc3c(N)c(C(=O)Nc4ccc(Cl)cc4)sc3n2)cc1 [Compound 648, 3-amino-N-(4-chlorophenyl)-6-(p-tolyl) thieno[2,3-b]pyridine-2-carboxamide] |  |  | < 5 | < 5 | < 5 | < 5 |  |  | 
5 | Cc1ccc(-c2ccc3c(N)c(C(=O)Nc4ccccc4Cl)sc3n2)cc1 [Compound 650, 3-amino-N-(2-chlorophenyl)-6-(p-tolyl) thieno[2,3-b]pyridine-2-carboxamide] |  |  | < 5 | < 5 | < 5 | < 5 |  |  | 
6 | COc1ccc(NC(=O)c2sc3nc(-c4ccc5c(c4)OCO5)ccc3c2N)c(OC)c1 [Compound 651, 3-amino-6-(1,3-benzodioxol-5-yl)-N-(2,4-dimethoxyphenyl)thieno[2,3-b]pyridine-2-carboxamide] |  |  | < 5 | < 5 | < 5 | < 5 |  |  | 
7 | COc1ccc(NC(=O)c2sc3nc(-c4ccc(Cl)cc4)ccc3c2N)c(OC)c1 [Compound 652, 3-amino-6-(4-chlorophenyl)-N-(2,4-dimethoxyyphenyl)thieno[2,3-b]pyridine-2-carboxamide] |  |  | < 5 | < 5 | < 5 | < 5 |  |  | 
8 | NC(=O)c1ncn([C@@H]2O[C@H](CO)[C@@H](O)[C@H]2O)n1 [ribavirin, Ribavirin] |  |  |  |  |  |  | did not show protection | induced anemia and thrombocytosis | did not show protection
